Results as given in US4444776A, “Dipyrido (4,3-B) (3,4-F) indoles, process for obtaining them, therapeutical use and pharmaceutical compositions” (priority 1977, dated 1984).

Assays:
L 1210 leukemia = assay: Test 1: antitumoral properties on L 1210 leukemia (Table I); assay type: in vivo, mouse
Method: The lower animal antitumoral properties of the compounds according to the invention have been determined by their curative action on inoculated test L-1210 leukemia. [ZUBROD C. G., Proc. Nat. Acad. Sci. 1972, 69, 1042-1047 and SCHEPARTZ SA. SCREENING, 1971, CANCER Chemother. Rep. Part 3 vol.2 p.3].
This leukemia is maintained in ascitic form by passage (i.p. route) on CBDl (C57 B16×DBA/2)F1 mice. The preparation to be tested are injected by the intraperitoneal route at least one day after the inoculation of the cells (one injection only). The results are expressed in increased life span per cent (ILS %) according to KESSEL et al. Cancer Res. 1971, 31, 1883-1887) or in percentage of the number of cells killed by the product (the survival of the animals is proportional to the number of cells injected).
The following tests were made in groups of 10 mice, unless stipulated to the contrary.
Test 1: Study of the antitumoral properties of the compounds of the invention on L 1210 leukemia
The lower animal antitumoral properties of the compounds according to the invention were determined by their curative action on test inoculated L 1210 leukemia.
This leukemia was maintained on CBD 1 (C 57 B 16×DBA/2) F1 mice. The compounds to be tested were injected by the IP route one or more days after the inoculation of the cells (single injection). The results obtained, shown in table I hereinafter, are expressed in percentage of increase of life span (ILS %) and in percentage of the number of cells killed by the compound to be tested, the survival of the animals being proportional to the number of cells injected.
The percentage of the like span ILS % (Cancer. Res. 1971, 31, 1883-1887) is the following ratio: [formula] S^t =survival of the treated animals S^c =survival of the control animals

[1] = system: tumoral strain derived from the murine leukemia due to the C. FRIEND virus; assay: Test 7: antitumoral activity in vitro on Friend leukemia tumoral strain; assay type: cell-based; settings: HUM = 1
Method: Test 7: Study of the antitumoral activity in vitro
This activity was measured on a tumoral strain derived from the murine leukemia due to the C. FRIEND virus.
The tumoral cells multiply in suspension in a "RPMI 1640" medium (Catalogue of GIBCO Bio-cult. Ltd. Washington Road, Sandyford Industrial Estate, PAISLEY PA 3 4EP, Renfrewshire, Scotland) supplemented with 20% of embryonary calf serum, penicillin and streptomycine. The duplication time of these cells is 11 hours. The growth fraction is equal to 1 or very close to 1 (all the cells are in the cycle). The cultures are sub-culturedat time t=0 at the concentration of 2.10^5 cells per ml in Falcon dishes containing 4 ml of medium. After twenty four hours, the product to be tested was added, i.e. at a moment when the cultures are in exponential phase of growth. Twenty four hours after the addition of the product, the cells are counted and the percentage of living cells determined by an exclusion test using "trypan" blue.

[2] = Test 8: acute toxicity in vivo, C3H mice; settings: mouse, read-out: LD 500
Method: (§1) Test 8: Acute toxicity in vivo
(§2) The products to be tested were injected by the IP route into groups of 10 mice at various dilutions. Each day, the number of dead animals is noted. If the doses are well chosen, a 100% lethal dose and a 50% lethal dose have been able to be defined for each product. This study is limited to two months. Two isogenic mouse strains were systematically used: C3H/He and ICFW.

C3H/He mice = assay: Test 8: acute toxicity in vivo, C3H mice; settings: mouse, ip
Method: as §1, §2

[3] = Test 8: acute toxicity in vivo, ICFW mice; settings: mouse, read-out: LD 500
Method: as §1, §2

ICFW mice = assay: Test 8: acute toxicity in vivo, ICFW mice; settings: mouse, ip
Method: as §1, §2

[4] = system: chloromonocytary tumoral cells; assay: Test 9: action on chloromonocytary tumoral cells (chloroleukemia); assay type: in vivo, ICFW mouse
Method: Test 9: Action on chloromonocytary tumoral cells
In this test, the action of the products according to the invention on chloromonocytary tumoral cells was determined according to the chloroleukemia of the mouse test (ICFW mouse, co-sanguine CFW strain) isolated in Unit 22 (B. TAMBOURIN and F. WENDLING) of the "Institut National de la Sante et de la Recherche Medicale- Paris" (I.N.S.E.R.M.) in a mouse injected with a variant of the Friend virus.
The tumour kills all the animals injected in 19.3± 2 days. This tumour develops in semi-solid ascitic form; the peritoneum is invaded, both by solid tumoral masses and cells in suspension in the ascitic liquid. The tumour is transmitted by the cells of the suspension which produce the tumoral masses and the ascitic cells.

Friend leukemia virus = assay: Test 14: viro-induced Friend leukemia, compound 21 (Tables Xa, Xb); assay type: in vivo, mouse; set-up: MST: unit not given beside the values; settings: for life span: Tables Xa and II
Method: Test 14: viro-induced leukemia: Friend leukemia
A- As in test 2 hereinabove, the Friend leukemia virus inoculum was obtained from leukemia spleen and diluted to contain 100 SD50 /0.2 ml (SD50 =spleen enlarging dose 50 percent). The product to be tested was compound 21 (obtained according to example 7). It was given by I.P. route as a single injection 1 day after virus inoculation. […]
B. The proceeding of test 2 was repeated by using the compound 21 i.e. 1-[(γ-diethylaminopropyl)amino]-5-methyl-dipyrido[4,3-b][3,4-f]indole obtained according to example 7.
This test was carried out with a single dose of compound 21 (20 mg/kg) and with various virus doses.

[5] = experiment no 1, 10^3 cells, 50 mg/kg, J+2
[6] = experiment no 1, 10^4 cells, 50 mg/kg, J+2
[7] = experiment no 1, 10^5 cells, 50 mg/kg, J+2
[8] = experiment no 1, 10^6 cells, 50 mg/kg, J+2
[9] = experiment no 2, 10^4 cells, 50 mg/kg, J+1
[10] = experiment no 2, 10^5 cells, 50 mg/kg, J+1
[11] = experiment no 2, 10^6 cells, 50 mg/kg, J+1
[12] = 10^3 cells, 0.01 mg/mouse (0.5 mg/kg), J+1
[13] = 10^3 cells, 0.1 mg/mouse (5 mg/kg), J+1
[14] = 10^4 cells, 0.1 mg/mouse (0.5 mg/kg) [sic], J+1
[15] = 10^4 cells, 0.1 mg/mouse (5 mg/kg), J+1
[16] = Table Xa, 5 mg/kg, 1 day after virus
[17] = Table Xb, 20 mg/kg J+1, virus 1/500 (1000 SD50)
[18] = Table Xb, 20 mg/kg J+1, virus 1/1000
[19] = Table Xb, 20 mg/kg J+1, virus 1/2000 (250 SD50)

Cc1c2ccncc2c(C)c2c1[nH]c1ccncc12 [Example 1, 5,11-dimethyl dipyrido [4,3-b][3,4-f] indole]
ILS % (L 1210 leukemia; [5]): 3%
Number of cells found (L 1210 leukemia; [5]): 800
Number of cells killed (L 1210 leukemia; [5]): 20%
Surviving mice (L 1210 leukemia; [5]): 1/10
ILS % (L 1210 leukemia; [6]): 14,78%
Number of cells found (L 1210 leukemia; [6]): 6,000
Number of cells killed (L 1210 leukemia; [6]): 40%
ILS % (L 1210 leukemia; [7]): 15,73%
Number of cells found (L 1210 leukemia; [7]): 40,000
Number of cells killed (L 1210 leukemia; [7]): 60%
Surviving mice (L 1210 leukemia; [7]): 0
ILS % (L 1210 leukemia; experiment no 1, 10^6 cells, 1 mg/mouse (50 mg/kg), IP, J+2): 34,32%
Number of cells found (L 1210 leukemia; [8]): 10^5
Number of cells killed (L 1210 leukemia; [8]): 90%
Surviving mice (L 1210 leukemia; [8]): 0
ILS % (L 1210 leukemia; [9]): 11,8%
Number of cells found (L 1210 leukemia; [9]): 5000
Number of cells killed (L 1210 leukemia; [9]): 50%
ILS % (L 1210 leukemia; [10]): 38,1%
Number of cells found (L 1210 leukemia; [10]): 2000
Number of cells killed (L 1210 leukemia; [10]): 98%
ILS % (L 1210 leukemia; experiment no 2, 10^6 cells, 1 mg/mouse (50 mg/kg), J+1): 47,3%
Number of cells found (L 1210 leukemia; [11]): 8000
Number of cells killed (L 1210 leukemia; [11]): 99%
ILS % (difference with the controls) (L 1210 leukemia; experiment no 3, 0,1 and 0,05 mg/mouse, 10^4 and 10^3 cells): no significant difference
Activity (ratio of the LD50 of HUM to the LD50 of the product tested) [1]: 3
LD50 ([2]; ip): 100 mg/kg
LD 100 (C3H/He mice): 200 mg/kg
LD50 ([3]; ip): 150 mg/kg
LD 100 (ICFW mice): 200 mg/kg
Mean survival time after treatment ([4]; 40 mg/kg 6 hours after inoculation, without treatment 18.5 ± 2 days): 25.3 ± 3.1 days
life span (Friend leukemia virus): significant increase of the life span

CCN(CC)CCCNc1nccc2c(C)c3[nH]c4ccncc4c3cc12 [Example 7, 1-(γ-diethylaminopropyl)amino-5-methyl-dipyrido-[4,3-b][3,4-f] indole]
ILS % (L 1210 leukemia; [12]): 17.4%
Number of cells found (L 1210 leukemia; [12]): 80
Number of cells killed (L 1210 leukemia; [12]): 92%
ILS % (L 1210 leukemia; [13]): 23.2%
Number of cells found (L 1210 leukemia; [13]): 40
Number of cells killed (L 1210 leukemia; [13]): 96%
Surviving mice (L 1210 leukemia; [13]): 5/10
ILS % (L 1210 leukemia; 10^4 cells, 0.1 mg/mouse (0.5 mg/kg) [sic], IP, J+1): 33.3%
Number of cells found (L 1210 leukemia; [14]): 60
Number of cells killed (L 1210 leukemia; [14]): 99.94%
Surviving mice (L 1210 leukemia; [14]): 1/10
ILS % (L 1210 leukemia; 10^4 cells, 0.1 mg/mouse (5 mg/kg), IP, J+1): 11.5%
Number of cells found (L 1210 leukemia; [15]): 10^3
Number of cells killed (L 1210 leukemia; [15]): 90%
Activity (ratio of the LD50 of HUM to the LD50 of the product tested) [1]: 20
LD50 ([2]; C3H, IP): 20 mg/kg
LD 100 (C3H/He mice): 35 mg/kg
LD50 ([3]; ICFW, IP): 15 mg/kg
LD 100 (ICFW mice): 25 mg/kg
Mean survival time after treatment ([4]; 1 mg/kg 24 hours after inoculation, without treatment 18.9 ± 1.8 day): 29.0 ± 3.0 days
ILS % (Friend leukemia virus; [16]): 39%
MST (Friend leukemia virus; [16]): 44.5
Range of death (Friend leukemia virus; [16]): 27 to 52 days
ILS % (Friend leukemia virus; [17]): 40%
MST (Friend leukemia virus; [17]): 40.7
Range of death (Friend leukemia virus; [17]): 31-51
Survivors 4 months after inoculation (Friend leukemia virus; [17]): 0
ILS % (Friend leukemia virus; [18]): 82.7%
MST (Friend leukemia virus; [18]): 44.4
Range of death (Friend leukemia virus; [18]): 30-54
Survivors 4 months after inoculation (Friend leukemia virus; [18]): 0
ILS % (Friend leukemia virus; [19]): 64%
MST (Friend leukemia virus; [19]): 55.4
Range of death (Friend leukemia virus; [19]): 50-82
Survivors 4 months after inoculation (Friend leukemia virus; [19]): 2
life span (Friend leukemia virus): significant increase of the life span
